Earlier results on two compounds are cited in patent publication US20070259329A1, “Anergy-inducing cellular composition” (BioVerde. Inc., priority 2006, published 2007).

The subject of one data set is T-cells. To be noted: Sanbongi et al. (1997); cited from earlier work.
In data set [1] the test system is antibody-stimulated peripheral blood mononuclear cells. To be noted: Falchetti et al. (2001), cited from earlier work.

Each structure is given as a SMILES string. Like-named read-outs stand apart in the source and are kept apart here.

Consider `Oc1cc(O)c2c(c1)O[C@H](c1ccc(O)c(O)c1)[C@H](O)C2` [(−)-epicatechin], for which the “proliferative responses of T-cells” value in the data set on T-cells is given as “inhibited”.

As to `Oc1ccc(C=Cc2cc(O)cc(O)c2)cc1` [resveratrol], the cytokine productions result in data set [1] (low concentrations (5-10 ppm)) is reported as “inhibited”; in data set [1] (still lower concentrations (0.625-2.5 ppm)), “enhanced”.
